Like-named read-outs stand apart in the source and are kept apart here.
Key:
Caov-3 = experiment: Cell growth inhibition, SRB assay; format: cell-based, human; settings: Homo sapiens; Ovarian Caov-3, 3% FBS
Protocol: (§1) Compounds were dissolved in DMSO and further diluted in cell culture medium for the experiments performed. Cells were seeded into 96-well plates with 1,500-5,000 cells/well according to cell growth rate. After 24 h, DMEM medium containing 10% FBS were changed to DMEM containing 3% FBS for cancer cells and additional 3% FBS were added into the culture medium for normal cells. The compound was added into the cell culture at the indicated concentrations, and the final concentration of DMSO was adjusted to a final concentration of 0.1%. Cells were subjected to either normoxic condition (20% O2) for 6 days or hypoxic condition (0.2% O2) for 2 days and then transferred to normoxic condition for 4 days. Cell viability was assessed by Sulforhodamine B (SRB) assay at Day 6.
(§2) Sulforhodamine B (SRB) (Sigma, Oakville, ON, Canada) is a water-soluble dye that binds to the basic amino acids of the cellular proteins. Thus, colorimetric measurement of the bound dye provides an estimate of the total protein mass that is related to the cell number. The cells were fixed in situ by gently aspirating off the culture media and adding 50 ul of cold 10% trichloroacetic Acid (TCA) per well and incubated at 4° C. for 30-60 min. The plates were washed five times with water and allowed to air dry for 5 min. 50 ul of 0.4% (w/v) SRB dissolved in 1% (v/v) acetic acid were added into each well, plates were then incubated at RT for 30 min for staining, washed four times with 1% acetic acid to remove any unbound dye and then allowed to air dry for 5 min. Stain was solubilized with 100 ul of 10 mM Tris pH 10.5 per well. Absorbance was read at 570 nm on a spectrophotometer. GI50 (compound concentration required for 50% of growth inhibition) was calculated using GraphPad Prism 4.0 software (GraphPad Software, Inc., San Diego, Calif., USA).
(§3) Cell viability of various cell lines treated with 3-carboxy-N,N,N-trimethyl-2-pentadecanamidopropan-1-aminium (“nPAC”) and compound of Examples S7, S63, S66, S90, S89, S67, S75 and S10 was also assessed in a manner as described above in Example 5.

MDA-231 = experiment: Cell growth inhibition, SRB assay; format: cell-based, human; settings: Homo sapiens, MDA-MB-231; Breast MDA-231, 3% FBS
Protocol: as §1, §2, §3

HCT116 = experiment: Cell growth inhibition, SRB assay, normoxia and hypoxia; format: cell-based; settings: Homo sapiens
Protocol: (§4) Human cancer cells (MCF-7, H358, H460, HCT116 p53^+/+, HCT116 p53^−/−, A172, PC-3, DU-145 and SW626) were maintained in DMEM medium containing 10% Fetal Bovine Serum (FBS) (Invitrogen, Burlington, ON, Canada) and normal cells HMEC, 184A1, NHBE and PrEC were cultured in MEGM, MEGM plus transferring and cholera toxin, BEGM and PrEGM supplemented with various growth factors (Cambrex, Charles city, IA, USA), respectively.
as §1
(§5) Sulforhodamine B (SRB) (Sigma, Oakville, ON, Canada) is a water-soluble dye that binds to the basic amino acids of the cellular proteins. […] Absorbance was read at 570 nm on a spectrophotometer. […]

HCT116 p53+/+ = experiment: Cell growth inhibition, SRB assay; format: cell-based; settings: Homo sapiens, HCT-116, mean±SD of 2 experiments (FIG. 2)
Protocol: as §4, §1, §2

H460 = experiment: Cell growth inhibition, SRB assay; format: cell-based; settings: Homo sapiens
Protocol: as §4, §1, §2

DU-145 = experiment: Cell growth inhibition, SRB assay; format: cell-based; settings: Homo sapiens, mean±SD of 2 experiments (FIG. 2)
Protocol: as §4, §1, §2

HCT116 p53−/− = experiment: Cell growth inhibition, SRB assay; format: cell-based; settings: Homo sapiens, HCT-116, mean±SD of 2 experiments (FIG. 2)
Protocol: as §4, §1, §2

[1] = tested on: normal cells, including human mammary epithelial cell line 184A1 and human primary epithelial cells HMEC (mammary); NHBE (lung) and PrEC (prostate); experiment: Growth of normal cells, SRB assay; format: cell-based; settings: 184A1, HMEC, SRB assay (FIG. 2B)
Protocol: as §4, §1, §5

| Structure (SMILES) | GI50 (Caov-3) [µM] | GI50 (MDA-231) [µM] | further results |
| --- | --- | --- | --- |
| CCCCCCCCc1ccc(NC(=O)N[C@H](CC(=O)[O-])C[N+](C)(C)C)cc1 [Example S7, (R)-3-(3-(4-octylphenyl)ureido)-4-(trimethylammonio)butanoate] | 1.3 | 27 | GI50 (HCT116; HCT-116, 144 h, normoxic condition (20% O2) for 6 days, read-out: GI50 Normoxi): 9.3 ± 0.7 µM; GI50 (HCT116; HCT-116, hypoxic condition (0.2% O2) for 2 days, then normoxic for 4 days, read-out: GI50 Hypoxia): 5.7 ± 0.6 µM; GI50 (HCT116 p53+/+): 9.3 ± 1.7 µM; GI50 (H460; NCI-H460, 144 h, H460, normoxic condition (20% O2) for 6 days, read-out: GI50 Normoxi): 8.8 ± 1.2 µM; GI50 (H460; NCI-H460, H460, hypoxic condition (0.2% O2) for 2 days, then normoxic for 4 days, read-out: GI50 Hypoxia): 2.6 ± 0.6 µM; GI50 (H460; NCI-H460, SRB assay, mean±SD of 2 experiments (FIG. 2), read-out: GI50 for H460): 8.8 ± 2 µM; GI50 (DU-145): 24 ± 2.8 µM; GI50 (HCT116 p53−/−): 13 ± 0.8 µM; growth inhibition of normal cells [1]: inhibits growth of cancer cells but not normal cells |
| CCCCCCCOc1ccc(NC(=O)N[C@H](CC(=O)[O-])C[N+](C)(C)C)cc1 [Example S10, (R)-3-(3-(4-(heptyloxy)phenyl)ureido)-4-(trimethylammonio)butanoate] | 13 | > 50 |  |
| CCCCCCCCCCOc1ccc(C(=O)N[C@H](CC(=O)O)C[N+](C)(C)C)cc1 [Example S63, (R)-3-(4-(decyloxy)benzamido)-4-(trimethylammonio)butanoate 2,2,2-trifluoroacetate] |  | 8.5 |  |
| CCCCCCCCCCc1ccc(C(=O)N[C@H](CC(=O)[O-])C[N+](C)(C)C)cc1 [Example S66, (R)-3-(4-decylbenzamido)-4-(trimethylammonio)butanoate] |  | 9.4 |  |
| CCCCCCCCCCOc1cccc(C(=O)N[C@H](CC(=O)[O-])C[N+](C)(C)C)c1 [Example S67, (R)-3-(3-(decyloxy)benzamido)-4-(trimethylammonio)butanoate] | 0.8 |  |  |
| CCCCCCCCCCCCc1ccc(NS(=O)(=O)N[C@H](CC(=O)O)C[N+](C)(C)C)cc1 [Example S89, (R)-3-(N-(4-dodecylphenyl)sulfamoylamino)-4-(trimethylammonio)-butanoate] | 1.5 |  |  |
| CCCCCCCCCCCCCCc1ccc(NS(=O)(=O)N[C@H](CC(=O)O)C[N+](C)(C)C)cc1 [Example S90, (R)-3-(N-(4-tetradecylphenyl)sulfamoylamino)-4-(trimethylammonio)-butanoate] | 1.6 |  |  |
